Experimental data from patent US20260115237A1, “PROBIOTIC COMPOSITION FOR PREVENTING AND TREATING ANTI-TUMOR TREATMENT-RELATED DIARRHEA AND USE THEREOF” (SICHUAN ANAEROBIC BIOTECHNOLOGY CO., LTD., priority 2023, published 2026).
Entries after “also recorded” stand apart in the source; their conditions may differ.

Columns and labels:
Assay type in all cases: in vivo
[1] = tested on: 5-FU-induced tumor-bearing CID mice; assay: Blood routine examination, 5-FU-induced tumor-bearing mouse model; conditions: 20 mg/kg i.g.; tumor-bearing 5-FU model
Method: (§1) Experimental design: Fifty male BALB/c mice (purchased from Chengdu GemPharmatech Co., Ltd.) were housed in an SPF-grade animal room. CT26 cells (purchased from Beijing BeNa Culture Collection) were subcutaneously inoculated into the right flank of each mouse at a dose of 5×10^6 cells/mouse in a volume of 0.1 mL. When the tumor volume reached about 100-150 mm^3, 42 mice were selected for the subsequent experiment. Based on the tumor volume, the aforementioned 42 mice were randomly divided into 7 groups of 6. The aforementioned 7 groups were as follows: a normal control group (administration regimen: lyoprotectant at 0.2 mL/mouse/day), a model control group (administration regimen: lyoprotectant at 0.2 mL/mouse/day), a positive control loperamide group (administration regimen: loperamide at 20 mg/kg body weight), a Zhengchangsheng group (administration regimen: Bacillus licheniformis at 2×10^8 CFU/mouse/day), a high-dose bacterial composition group (administration regimen: bacterial composition at 1×10^9 CFU/mouse/day), a medium-dose bacterial composition group (administration regimen: bacterial composition at 1×10^8 CFU/mouse/day), and a low-dose bacterial composition group (administration regimen: bacterial composition at 1×10^7 CFU/mouse/day). The day of grouping was designated as day 1 (D1) of the experiment, and intragastric administration was started on day 1 (D1) and performed once daily (QD) for 9 consecutive days. On days 3, 4, 5, and 6 of administration, the normal control group was intraperitoneally injected with normal saline at 0.2 mL/mouse, while the mice in all other groups were intraperitoneally injected with 5-FU (50 mg/kg body weight, 10 mL/kg body weight) for modeling. Compared with the normal control group, the tumor volumes of mice in each group were reduced after 5-FU injection.
The specific administration regimens are detailed in Table 18. After the end of the experiment, whole blood samples were collected from animals in each group through enucleation, and then subjected to blood routine examination using a five-classification blood cell analyzer for animals (Shenzhen Dymind Biotechnology Co., Ltd.).

[2] = Body weight, radiation enteritis model mice; conditions: 15 mg/kg i.g.
Method: (§2) (1) Experimental design: Eighty male C57BL/6 mice (purchased from Chengdu GemPharmatech Co., Ltd.) were housed in an SPF-grade animal room. Based on the body weight, the aforementioned mice were randomly divided into 8 groups of 10: a normal control group (administration regimen: normal saline at 0.2 mL/mouse/day), a model control group (administration regimen: lyoprotectant at 0.2 mL/mouse/day), a loperamide group (administration regimen: loperamide at 15 mg/kg body weight), an LGG (Lactobacillus rhamnosus GG, Shaanxi Zelang Biotechnology Co., Ltd.) group (administration regimen: LGG at 1×10^9 CFU/mouse/day), a high-dose bacterial composition group (administration regimen: bacterial composition at 1×10^9 CFU/mouse/day), a medium-high-dose bacterial composition group (administration regimen: bacterial composition at 1×10^8 CFU/mouse/day), a medium-dose bacterial composition group (administration regimen: bacterial composition at 1×10^7 CFU/mouse/day), and a low-dose bacterial composition group (administration regimen: bacterial composition at 1×10^6 CFU/mouse/day). Except for the normal control group, all other groups of mice were subjected to a single whole abdominal X-ray irradiation at a dose of 11.5 Gy. The overall experimental period was 18 days, designated as D1 to D18. Each group was subjected to intragastric administration once daily for 17 consecutive days. Seven days after administration, irradiation was performed on D8, and dissection was conducted on D18.
(§3) During the experimental period, the body weight of the animals was measured daily, and general observations were recorded (the observation items included but were not limited to the animals' appearance signs, behaviors and activities, respiration, glandular secretion, fecal condition, etc.). The diarrhea condition of each animal after irradiation modeling was specifically observed and then recorded and scored. At the end of the experiment, the animals were euthanized, and the colorectal parts were taken, directly fixed in a 10% formaldehyde solution, stained with HE, and then subjected to pathological examination.

[3] = tested on: mice with radiation enteritis; assay: Diarrhea scoring, radiation enteritis model mice; conditions: 15 mg/kg i.g.
[4] = tested on: mice with 5-FU-induced diarrhea; assay: Diarrhea scoring, mice with 5-FU-induced diarrhea (CID model); conditions: 20 mg/kg i.g.; 5-FU model
Method: Pdist-1, Lferm-1, Lsali-1, Eaviu-1, and Bbifi-1 were each inoculated into the corresponding bacterial powder preparation medium, and then anaerobically cultured at 37° C. and 90 rpm for 16-24 h to obtain a primary seed solution. Subsequently, the five primary seed solutions were each transferred to the corresponding bacterial powder preparation medium, and then anaerobically cultured at 37° C. and 90 rpm for 10-15 h to obtain a secondary seed solution. The five secondary seed solutions were each pumped into a fermenter containing the corresponding bacterial powder preparation medium using a peristaltic pump, and then subjected to fermentation culture. After the fermentation was stopped, the bacterial cells of each strain were collected by centrifugation. Each corresponding lyoprotectant was added according to a weight ratio of the bacterial sludge to the lyoprotectant of 1:1 to 1:2, and the mixture was well mixed to emulsify the bacterial sludge. Each bacterial sludge was lyophilized and pulverized to obtain a bacterial powder. An appropriate amount of each pulverized bacterial powder was taken for determination of viable count. The bacterial powders of the strains were mixed at equal CFU concentrations based on the viable counts to obtain a bacterial composition powder. Finally, the bacterial composition powder was prepared into a bacterial suspension using normal saline for an animal experiment. The bacterial suspension was diluted with normal saline to obtain bacterial compositions with different bacterial doses. […]
During the experimental period, the body weight of the animals was measured daily, and general observations were recorded (the observation items included but were not limited to the animals' appearance signs, behaviors and activities, respiration, glandular secretion, fecal condition, etc.). The diarrhea condition of each animal after modeling was specifically observed and then recorded and scored. […]

[5] = tested on: mice with radiation enteritis; assay: Colorectal pathological examination (HE), radiation enteritis model mice; conditions: 15 mg/kg i.g.
Method: as §2, §3
(3) Pathological examination of intestinal tissues: The colorectal parts were directly fixed in a 10% formaldehyde solution, stained with HE, and then subjected to pathological examination.

ZO-1 = assay: qPCR of colon tissue, 5-FU-induced diarrhea mice; conditions: 20 mg/kg i.g.; 5-FU model
Excerpt: (§4) (1) Experimental design: Ninety-six SPF-grade male Balb/c mice weighing 22-24 g (purchased from Beijing Vital River Laboratory Animal Technology Co., Ltd.) were housed in an SPF-grade animal room. Based on the initial body weight, the mice were randomly divided into 8 groups of 12: a normal control group, a model control group, a positive control loperamide group, a positive control Zhengchangsheng group, a high-dose bacterial composition group, a medium-high-dose bacterial composition group, a medium-dose bacterial composition group, and a low-dose bacterial composition group. The aforementioned 8 groups were intragastrically given normal saline (0.2 mL/mouse/day), lyoprotectant (0.2 mL/mouse/day), loperamide (purchased from Henan Zhongjie Pharmaceutical Co., Ltd., 20 mg/kg body weight/mouse/day), Zhengchangsheng (containing viable Bacillus licheniformis, Northeast Pharmaceutical Group Co., Ltd., 2×10^8 CFU/mouse/day), high-dose bacterial composition (1×10^9 CFU/mouse/day), medium-high-dose bacterial composition (1×10^8 CFU/mouse/day), medium-dose bacterial composition (1×10^7 CFU/mouse/day), and low-dose bacterial composition (1×10^6 CFU/mouse/day), respectively. The overall experimental period was 9 days, designated as D1 to D9. Intragastric administration was performed for 8 consecutive days from D1 to D8. Modeling was started on D3. The mice in the normal control group received abdominal injection of normal saline at 0.2 mL/mouse, while the mice in all other groups were intraperitoneally injected with 5-FU (5-fluorouracil, purchased from Tianjin Pharma Heping (Tianjin) Pharmaceutical Co., Ltd.; specification: 10 mL/vial, 0.25 g/10 mL) at 30 mg/kg body weight for 4 consecutive days to induce a CID mouse model. The mice were dissected on D9.
(§5) During the experimental period, the body weight of the animals was measured daily, and general observations were recorded (the observation items included but were not limited to the animals' appearance signs, behaviors and activities, respiration, glandular secretion, fecal condition, etc.). The diarrhea condition of each animal after modeling was specifically observed and then recorded and scored. After euthanasia was performed at the end of the experiment, middle colon tissue samples were collected for qPCR detection of genes related to inflammatory factors (TNF-α and IL-1β) and tight junction proteins (ZO-1 and Occludin).
(§6) (3) qPCR detection: The total RNA was extracted from colon tissues of the mice in each group using the Trizol method and then reverse-transcribed into cDNA. The cDNA was stored at −20° C. for later use. The relative mRNA transcriptional levels of the genes encoding the pro-inflammatory factors IL-1β and TNF-α, as well as the tight junction proteins ZO-1 and Occludin-1, in the colon of the mice in each group were detected using the qRT-PCR method (the primer sequences are shown in Table 7, and the internal reference gene was β-actin). Reaction program: 1) 95° C. for 3 min; 2) 95° C. for 10 s, 60° C. for 30 s, 95° C. for 15 s, and 60° C. for 1 min, 40 cycles in total; and 3) 95° C. for 10 s. Data analysis was performed using the 2^−ΔΔCT method.

TNF-α = assay: qPCR of colon tissue, 5-FU-induced diarrhea mice; conditions: 20 mg/kg i.g., 5-FU model
Excerpt: as §4, §5, §6

IL-1β = assay: qPCR of colon tissue, 5-FU-induced diarrhea mice; conditions: 20 mg/kg i.g.; 5-FU model
Excerpt: as §4, §5, §6

Occludin = assay: qPCR of colon tissue, 5-FU-induced diarrhea mice; conditions: 20 mg/kg i.g.; 5-FU model
Excerpt: as §4, §5, §6

[6] = tested on: 5-FU-induced tumor-bearing CID mice; assay: Diarrhea scoring, 5-FU-induced tumor-bearing CID mice; conditions: 20 mg/kg i.g., tumor-bearing 5-FU model
Excerpt: The bacterial composition used in Examples 10-12 were obtained by mixing five strains at equal CFU concentrations according to the method in Example 9. The CFU of the bacterial composition referred to in Examples 10-12 was the total CFU of the five strains.
as §1

CN(C)C(=O)C(CCN1CCC(O)(c2ccc(Cl)cc2)CC1)(c1ccccc1)c1ccccc1 [Loperamide, loperamide]
Hematocrit [1]: 43.17 ± 0.99%
Lymphocyte count [1]: 1.18 ± 0.29 10^9/L
Platelet count [1]: 216.67 ± 21.53 10^9/L
Red blood cell count [1]: 9.39 ± 0.23 10^12/L
White blood cell count [1]: 1.24 ± 0.30 10^9/L
D1 body weight [2]: 23.11 ± 0.20 g
D14 body weight [2]: 19.79 ± 0.14 g
D14 body weight change rate [2]: −14.37 ± −10.00%
D17 body weight [2]: 20.92 ± 0.16 g
D17 body weight change rate [2]: −9.48 ± −6.38%
D17 body weight ([2]; listed as loperamide): a trend toward restoring
D17 total diarrhea score [3]: 9.80 ± 0.59
D17 total diarrhea score ([3]; listed as loperamide): significant improvements
D8 diarrhea score [4]: 0.08 ± 0.08
D9 diarrhea score [4]: 0.17 ± 0.11
Total diarrhea score [4]: 0.25 ± 0.18
Goblet cell (colorectal pathological score) [5]: 1.60 ± 0.08
Inflammatory infiltration (colorectal pathological score) [5]: 2.00 ± 0.00
Mucosal damage (colorectal pathological score) [5]: 1.60 ± 0.08
Pathological score (colorectal) [5]: 5.20 ± 0.15
Pathological score (colorectal) ([5]; listed as loperamide): an improvement trend
ZO-1 relative mRNA transcription level in colon tissue (ZO-1): 0.80
TNF-a relative mRNA transcription level in colon tissue (TNF-α): 1.05
TNF-a relative mRNA transcription level in colon tissue (TNF-α; listed as loperamide): significantly reduce
IL-1β relative mRNA transcription level in colon tissue (IL-1β): 1.26
Occludin relative mRNA transcription level in colon tissue (Occludin): 0.90
D1-D9 total diarrhea score [6]: 4.67 ± 0.56
D6 diarrhea score [6]: 0.33 ± 0.21
D7 diarrhea score [6]: 1.00 ± 0.00
D8 diarrhea score [6]: 1.33 ± 0.21
D9 diarrhea score [6]: 2.00 ± 0.37
D1-D9 total diarrhea score ([6]; listed as loperamide): a significant reduction; also recorded: significantly ameliorate diarrhea
D8 diarrhea score ([6]; listed as loperamide): a significant reduction
